Measured values taken from patent US7357913B2, “Methods for detecting, prognosing, or monitoring a disorder by comparing relative flux rates of two or more biological molecules in vivo” (The Regents of the University of California, priority 2003, dated 2008).
Entries after “also recorded” stand apart in the source; their conditions may differ.

Tests used:
liver cell = test: Liver cell proliferation after griseofulvin in chow; settings: C57BL/6 mice, below the no observable effect level, 5 days
Experimental: (§1) Cell proliferation and collagen synthesis (turnover) were also assessed concurrently (i.e., simultaneously) in mice (C57BL/6 and Balb/c) fed griseofulvin. Griseofulvin is recognized as a hepatotoxin, inducing cell proliferation and porphyria. Mice were administered griseofulvin in their chow (1% w/w) for 5 days.

liver collagen = test: Liver collagen synthesis (turnover) after griseofulvin in chow; type: in vivo, mouse; settings: C57BL/6 mice, doses tested, 5 days (data not shown)
Experimental: as §1

[1] = test system: mouse colon cells (colonocytes); test: Colonocyte proliferation in nude mice, paclitaxel; type: in vivo; settings: SW1573, increasing doses, 2H2O labeling 24 hours
Experimental: (§2) Nude mice were implanted with human SW1573 lung cancer cells (5×10^6 cells/animal), injected with varying doses of paclitaxel, and labeled with ^2H2O for 24 hours. Both vehicle (1:1 [v/v] solution of ethanol:cremephor EL) and paclitaxel stock (dissolved in 1:1 v/v solution of ethanol:cremephor EL) were diluted 1:6, prior to injection into animals, with sterile 0.1 M Phosphate Buffered Saline (PBS). Tumor cells and bone marrow cells were removed using techniques well known in the art and as described, supra.
(§3) Colonocytes were removed as follows: The colon was removed from animals and washed with 0.1 M Phosphate Buffered Saline (PBS), cut open, and incubated in PBS containing collagenase type2 (72 mg/mL) and DNase (10 μg/mL) at 37° C., gently shaken for 40 minutes. After incubation, tissue was gently scraped and cells were collected by centrifugation at 800×g for 5 minutes at 4° C. The pellet was homogenously suspended in 45% percoll in 1.6% JMEM medium. The suspension was applied on top of a 5 mL cushion of 45% (v/v) percoll in a 75% percoll gradient and centrifuged at 350×g for 30 minutes at room temperature. Colonocytes were collected and washed twice with PBS. Debris was then separated from the cell suspension using a […] filter. […] FIG. 11 depicts the results.

[2] = test system: human SW1573 lung cancer cells; test: Tumor cell proliferation in nude mice with SW1573 cells, paclitaxel; type: in vivo; settings: increasing doses, 2H2O labeling 24 hours
Experimental: as §2, §3

mouse bone marrow cells = test: Bone marrow cell proliferation in nude mice, paclitaxel; type: in vivo; settings: SW1573, increasing doses, 2H2O labeling 24 hours
Experimental: as §2, §3

| Structure (SMILES) | liver cell proliferation, lowest dose / levels below the NOEL (liver cell) | liver collagen synthesis (collagen turnover) (liver collagen) | colonocyte proliferation relative to vehicle controls [1] | tumor cell proliferation relative to vehicle controls [2] | bone marrow cell proliferation relative to vehicle controls (mouse bone marrow cells) |
| --- | --- | --- | --- | --- | --- |
| COC1=CC(=O)C[C@@H](C)[C@]12Oc1c(Cl)c(OC)cc(OC)c1C2=O [griseofulvin] | pronounced effects and dose responsiveness; also recorded: observable effect | no increase; also recorded: no effect | – | – | – |
| CC(=O)O[C@H]1C(=O)[C@@]2(C)[C@H]([C@H](OC(=O)c3ccccc3)[C@]3(O)C[C@H](OC(=O)[C@H](O)[C@@H](NC(=O)c4ccccc4)c4ccccc4)C(C)=C1C3(C)C)[C@]1(OC(C)=O)CO[C@@H]1C[C@@H]2O [paclitaxel] | – | – | inhibitory effect, in a dose-dependent manner; also recorded: inhibited, in a dose-dependent manner | inhibitory effect, in a dose-dependent manner; also recorded: inhibited, in a dose-dependent manner | little or no effect |
